Measurements published in ChEMBL document CHEMBL5209576, “Membrane potential based assay for SLC5A7 using HEK-293 SLC5A7 OE cells” (2022).

Target: T1, High affinity choline transporter 1 (Homo sapiens, UniProt Q9GZV3)
T1 sequence (Q9GZV3 whole entry): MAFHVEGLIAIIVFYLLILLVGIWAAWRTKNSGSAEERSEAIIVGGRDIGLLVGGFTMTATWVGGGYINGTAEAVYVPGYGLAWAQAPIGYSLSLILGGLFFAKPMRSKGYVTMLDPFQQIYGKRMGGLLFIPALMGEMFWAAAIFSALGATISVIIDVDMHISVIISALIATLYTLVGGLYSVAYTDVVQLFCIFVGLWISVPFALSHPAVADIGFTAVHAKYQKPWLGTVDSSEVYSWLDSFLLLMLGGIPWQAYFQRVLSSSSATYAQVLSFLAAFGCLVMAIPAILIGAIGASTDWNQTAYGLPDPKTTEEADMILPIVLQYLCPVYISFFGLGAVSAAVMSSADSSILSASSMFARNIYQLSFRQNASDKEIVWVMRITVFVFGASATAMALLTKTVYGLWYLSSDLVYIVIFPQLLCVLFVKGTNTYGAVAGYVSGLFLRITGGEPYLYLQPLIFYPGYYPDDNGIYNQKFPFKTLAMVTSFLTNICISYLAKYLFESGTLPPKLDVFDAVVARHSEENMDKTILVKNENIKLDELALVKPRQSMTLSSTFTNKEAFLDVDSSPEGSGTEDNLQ
Assay: Substrate uptake and inhibition of the High Affinity Choline Transporter 1 (CHT1, SLC5A7) as assessed by the fluorescent FLIPR membrane potential dye in HEK-293 JumpIN-SLC5A7 cells (PubChem AID: 1794811)
Format: functional, cell-based, HEK293

Row | SMILES | IC50 (hek293) | EC50
1 | C[N+]1(C)CCOC(O)(c2ccc(-c3ccc(C4(O)C[N+](C)(C)CCO4)cc3)cc2)C1.[Br-].[Br-] (configuration not stated) | Inhibitor: Almost Complete Inhibition At A Concentration Of 10 Μm | 
2 | C[N+](C)(C)CCO.[Cl-] [CHOLINE CHLORIDE] |  | 17 µM
